Earlier results, collected in patent publication US20160051485A1, “Biodegradable Bionanoparticles for Releasing the GSE24-2 Peptide, Method for the Production Thereof, and Use of Same” (CONSEJO SUPERIOR DE INVESTIGACIONES (CSIC), priority 2013, published 2016).

Tested on: F9A353V cells
Details: transfection of the peptide using a lipid compound; previous experiments

GSE24.2: fragment of 55 amino acids of the internal domain of dyskerin (TRUB domains), activating telomerase (GFINLDKPSNPSSHEVVAWIRRILRVEKTGHSGTLDPKVTGCLIVCIERATRLVK; listed as Homo sapiens)
Signal of the histone H2AX: reduces the signal of the histone H2AX
